Experimental data: patent US20070248702A1, “Use of CB2 receptors agonists for the treatment of Huntington's disease” (priority 2004, published 2007)
pIC50: −log10 of the molar value.

How the values were obtained:
[1] = tested on: rats with unilateral injections of malonate; test: GABA contents in basal ganglia by HPLC, malonate rat model of Huntington's disease; format: in vivo; details: for GABA contents Globus pallidus / GABA contents Substantia nigra: % of lesioned side over non-lesioned side, mean ± SEM, i.p. 30 min before and 2 h after malonate (ACEA 3 mg/kg, HU-308 5 mg/kg, CBD 5 mg/kg), 48 h; for neurochemical deficits induced by malonate in the caudate-putamen and other basal ganglia structures: Table 1 and FIG. 1, result in words, ACEA 3 mg/kg; for neurochemical deficits induced by malonate in the caudate-putamen and other basal ganglia structures / malonate-induced GABA loss in the striatum (caudate-putamen): CBD 5 mg/kg i.p.; for malonate-induced GABA loss in the striatum (caudate-putamen): FIG. 1, result in words, HU-308 5 mg/kg
Procedure: (§1) Animals. Male Sprague-Dawley rats were housed in a room with controlled photoperiod (08:00-20:00 light) and temperature (23±1° C.). […] Each treatment group consisted of at least six animals.
(§2) Intrastriatal injection of malonate. Rats were injected stereotaxically (coordinates: +0.8 mm anterior, 2.9 mm lateral from the bregma, 4.5 mm ventral from the dura mater) into the left striatum with 2 M malonate in a volume of 1 μl and used for experimental analysis 48 h later.
(§3) Cannabinoid treatment. […] All compounds were prepared in Tween 80-saline solution (1:16 volume per volume). The volume dosage for i.p. administration was 2 ml/kg body weight. The doses used for each experiment were selected from the previous studies on the pharmacological properties of these compounds.
(§4) Animals were killed 46 hours after the second cannabinoid injection and their brains were rapidly removed and frozen in 2-methylbutane cooled in dry ice, and stored until evaluation of the degree of malonate-induced striatal injury.
(§5) Sample preparation. Brains coronal slices (around 500 μm thick) were made at levels containing the substantia nigra, the globus pallidus and the caudate-putamen, according to Palkovits M. and Brownstein J. (Maps and Guide to Microdissection of the Rat Brain. Elsevier, 1988). Subsequently, the three structures were dissected and homogenized in 20-40 volumes of cold 150 mM potassium phosphate buffer, pH 6.8. Each homogenate was distributed for the analysis of the contents of GABA or dopainine and its major metabolite, 3,4-dihydroxyphenylacetic acid (DOPAC), by High Performance Liquid Chromatography (HPLC) coupled to electrochemical detection, according to previously described methods (Romero J. et al., Brain Res. 694: 223-32, 1995; González S. et al., Life Sci. 65: 327-36, 1999). An aliquot of each homogenate was used to analyze protein concentration (Lowry O. H. et al., J. Biol. Chem. 193: 265-75, 1951).
Analysis of GABA contents. This analysis was carried out by HPLC with electrochemical detection according to the procedure described by Smith S, and Sharp T. (J. Chromat. 652: 228-33, 1994). The aliquot of the homogenate used for the direct measurement of GABA content was diluted 1:2 with 0.4 N perchloric acid containing 0.4 mM sodium disulfite, 0.90 mM EDTA and 10 μg/ml β-aminobutyrate (BABA) as an internal standard. Following, samples were centrifuged for 3 min (15,000 g) and 50 μl of each supernatant removed and neutralized with 100 μl of 0.1 N NaOH. Samples were stored at 4° C. until analysis. This was performed by derivatization of GABA and BABA (β-aminobutyrate) through the addition of 15 μl of o-phthaldehyde (OPA)-sulfite solution (14.9 mM OPA, 45.4 mM sodium sulfite and 4.5% ethanol in 327 mM borate buffer, pH 10.4). Samples were allowed to react at room temperature for a period of 10 min. After this time, 20 μl of each reaction mixture (including derivatizated calibration standards composed of known concentrations of GABA and BABA) were injected into the HPLC system. The HPLC system consisted of the following elements. The pump was an isocratic Spectra-Physics 8810. The column was a RP-18 (Spherisorb ODS-2; 150 mm, 4.6 mm, 5 μm particle size; Waters, Mass., USA). The mobile phase, previously filtered and degassed, consisted of 0.06 M sodium dihydrogen phosphate, 0.06 mM EDTA and 20-30% methanol (pH 4.4) and the flow rate was 0.8 ml/min. The effluent was monitored with a Metrohm bioanalytical system amperometric detector using a glassy carbon electrode. The potential was 0.85V relative to an Ag/AgCl reference electrode with a sensitivity of 50 nA (approx. 2 ng per sample). The signal was recorded on a Spectra-Physics 4290 integrator. The approximate retention times for GABA and BABA were 8 and 16 min, respectively. […] Values were expressed as μg/mg of protein.

[2] = tested on: rats with unilateral injections of malonate; test: dopamine and DOPAC contents in caudate-putamen by HPLC, malonate rat model; format: in vivo; details: % of lesioned side over non-lesioned side, mean ± SEM; i.p. 30 min before and 2 h after malonate (ACEA 3 mg/kg, HU-308 5 mg/kg, CBD 5 mg/kg); 48 h
Procedure: as §1, §2, §3, §4, §5

[3] = tested on: rats with unilateral lesions of the caudate-putamen generated by local application of malonate; details: Lastres-Becker et al., Neuroreport 14: 813-6, 2003; effects not dose-dependent; cited from earlier work
[4] = tested on: rats systemically exposed to 3-nitropropionic acid; details: Lastres-Becker et al., Neuroreport 15: 2375-9, 2004; cited from earlier work
[5] = tested on: rats with unilateral injections of malonate; test: in situ hybridization of neuronal-specific enolase mRNA, malonate rat model; format: in vivo; details: FIG. 2, result in words; HU-308 5 mg/kg, CBD 5 mg/kg i.p.
Procedure: Animals were killed 46 hours after the second cannabinoid injection and their brains were rapidly removed and frozen in 2-methylbutane cooled in dry ice, and stored until evaluation of the degree of malonate-induced striatal injury. The protocol and results concerning the neurochemical evaluation of the neuronal injury and the effect of the various types of cannabinoids are reported in Example 2. The protocol and results concerning the effect of the various types of cannabinoids on the mRNA levels of neuron specific enolase are reported in Example 3.
(§6) Brain slicing. Coronal sections, 40 μm-thick, were cut in a cryostat, according to the Paxinos G. and Watson C. atlas (Rat brain in stereotaxic coordinates. Academic Press, London, 1986). Sections were thaw-mounted onto Superfrost Plus glass slides and dried briefly at 30° C. and stored at −80° C. until used.
(§7) Analysis of mRNA levels of NSE. Briefly, sections were fixed in 4% paraformaldehyde for 5 min and, after rinsing twice in PBS, were acetylated by incubation in 0.25% acetic anhydride, prepared in 0.1 M triethanolamine/0.15 M sodium chloride (pH 8.0), for 10 min. […]
(§8) The oligonucleotide probe was labeled at the 3′-end with [^35S]-dATP using terminal deoxynucleotidyl-transferase. […] The intensity of the hybridization signal was assessed by measuring the grey levels in the films with a computer-assisted video densitometer. […]

[6] = tested on: rats with unilateral injections of malonate; test: in situ hybridization of SOD-1 and SOD-2 mRNA, malonate rat model; format: in vivo; details: result in words, HU-308 5 mg/kg i.p.
Procedure: The protocol and results concerning possible sites of action are reported in Example 6.
as §6
as §7, with “min. Sections were rinsed in 0.3 M sodium chloride/0.03 M sodium citrate, pH 7.0, dehydrated and delipidated by ethanol/chloroform series. For hybridization, the following synthetic probe of 45 nucleotides was used.” for “min.”
as §8
Superoxide dismutase-1 and -2 (SOD-1 and SOD-2) were used as markers of endogenous antioxidant defenses. Their relative levels in lesioned vs. non-lesioned areas of malonate injected rats were measured by in situ hybridization. […]

human CB1 receptors = human CB1 receptors (Homo sapiens, UniProt P21554); details: read-out: IC50 human CB1 receptors; as disclosed in WO 03/064359; cited from earlier work
[7] = tested on: mice treated with the neurotoxin MPTP; details: WO 03/064359; cited from earlier work

human CB1 receptors, sequence (P21554 whole entry): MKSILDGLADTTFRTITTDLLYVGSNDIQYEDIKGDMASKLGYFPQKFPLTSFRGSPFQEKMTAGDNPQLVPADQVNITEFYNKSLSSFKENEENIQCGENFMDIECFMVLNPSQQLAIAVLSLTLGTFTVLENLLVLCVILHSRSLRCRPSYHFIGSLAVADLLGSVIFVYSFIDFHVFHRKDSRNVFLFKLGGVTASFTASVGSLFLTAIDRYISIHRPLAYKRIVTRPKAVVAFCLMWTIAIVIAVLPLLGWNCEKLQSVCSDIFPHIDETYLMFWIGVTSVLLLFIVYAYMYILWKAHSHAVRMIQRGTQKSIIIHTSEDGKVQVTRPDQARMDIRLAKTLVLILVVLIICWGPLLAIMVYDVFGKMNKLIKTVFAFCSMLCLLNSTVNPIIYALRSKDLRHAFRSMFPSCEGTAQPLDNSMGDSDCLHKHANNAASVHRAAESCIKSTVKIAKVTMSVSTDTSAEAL

Compound	GABA contents Globus pallidus [1]	GABA contents Substantia nigra [1]	neurochemical deficits induced by malonate in the caudate-putamen and other basal ganglia structures [1]	DA contents Caudate-putamen [2]	DOPAC contents Caudate-putamen [2]	effect on malonate toxicity [3]	malonate-induced GABA loss in the striatum (caudate-putamen) [1]	mRNA levels for neuronal-specific enolase in the caudate-putamen [5]	further results
CCCCC/C=C\C/C=C\C/C=C\C/C=C\CCCC(=O)NCCCl [ACEA, arachidonyl-2-chloroethylamide]	61.1 ± 12.2 %	92.1 ± 5.2%	did not influence neurochemical deficits	23.8 ± 5.4 %	44.9 ± 9.7 %				
CCCCCc1cc(O)c2c(c1)OC(C)(C)[C@@H]1CCC(C)=C[C@@H]21 [Δ^9-THC, Δ^9-tetrahydrocannabinol]						pro-toxic			neuroprotection in 3-nitropropionic acid rats [4]: neuroprotectant
C=C(C)[C@@H]1CCC(C)=C[C@H]1c1c(O)cc(CCCCC)cc1O [CBD, cannabidiol]	54.4 ± 8.2 %	86.3 ± 8.6%	lack of neuroprotectant effects	12.6 ± 4.9 %			slightly reduce the GABA depletion	totally inactive	
CCCCCCC(C)(C)c1cc(OC)c(C2C=C(CO)C3CC2C3(C)C)c(OC)c1 (single isomer, unassigned; (+)) [HU-308, (+){4-[4-(1,1-dimethylheptyl)-2,6-dimethoxyphenyl]-6,6-dimethyl-bicyclo[3.1.1]hept-2-en-2-yl}-methanol]	90.1 ± 13.4 %	93.8 ± 7.7%		34.1 ± 5.2 %	53.9 ± 5.7 %		reduced malonate-induced GABA loss	partially prevented the malonate-induced reduction	GABA contents in the lesioned side ([1]; striatum, lesioned side, malonate + HU-308 5 mg/kg i.p.): 1.12±0.08 μg/mg of protein; GABA contents in the non-lesioned side ([1]; striatum, non-lesioned side, malonate + HU-308 5 mg/kg i.p.): 1.96±0.11 μg/mg of protein; mRNA levels for SOD-1 in the caudate-putamen ([6]; FIG. 5A): unable to prevent the malonate-induced decrease; mRNA levels for SOD-2 in the caudate-putamen ([6]; FIG. 5B): unable to prevent the malonate-induced decrease; pIC50 (human CB1 receptors): 5.44; cell death in the substantia nigra [7]: reduces the extent of cell death in the substantia nigra
SR144528									effect of co-administration on the HU-308 reduction of malonate-induced GABA depletion in the caudate-putamen ([1]; FIG. 3, SR144528 1 mg/kg i.p. with HU-308 5 mg/kg i.p.): completely reversed
Cc1c(C(=O)NN2CCCCC2)nn(-c2ccc(Cl)cc2Cl)c1-c1ccc(Cl)cc1 [SR141716]						enhanced malonate toxicity			
